Laboratory results from patent US20240000872A1, “NOVEL BACTERIOPHAGE THAT LYSES ACINETOBACTER GENUS BACTERIA HAVING RESISTANCE TO ANTIBIOTICS” (priority 2020, published 2024).

Tested on: Acinetobacter baumannii strains
Assay: Antibiotic susceptibility test (CLSI disk diffusion test method, read per CLSI 2016)
Type: cell-based
Design: antibiotic susceptibility test value / susceptibility test value (number given before S/I/R) / antibiotic susceptibility value: unit not given here
Method: Strain identification was performed using a kit such as AT 32 GN system (bioMérieux, Marcy l'Etoile, France). […] In Table 2 below, S, I, and R are the results obtained by evaluating susceptibility to the antibacterial agents, in which ‘S’ means susceptible, ‘I’ means intermediate, and ‘R’ means resistant.
Strain identification was performed using a kit such as ATB 32 GN system (bioMédrieux, Marcy l'Etoile, France). […] In Table 6 below, S, I, and R are the results obtained by evaluating susceptibility to the antibacterial agents, in which ‘S’ means susceptible, ‘I’ means intermediate, and ‘R’ means resistant.
Strain identification was performed using a kit such as ATB 32 GN system (bioMérieux, Marcy l'Etoile, France). […] In Table 10 below, S, I, and R are the results obtained by evaluating susceptibility to the antibacterial agents, in which ‘S’ means susceptible, T means intermediate, and ‘R’ means resistant.

Substance: gentamicin
- antibiotic susceptibility class (host strain YMC14/01/C29): R
- antibiotic susceptibility test value (host strain YMC14/01/C29): 16
- antibiotic susceptibility class (host strain YMC14/01/IP122): R
- antibiotic susceptibility test value (host strain YMC14/01/IP122): 16
- antibiotic susceptibility class (host strain YMC14/01/L8): R
- antibiotic susceptibility test value (host strain YMC14/01/L8): 16
- antibiotic susceptibility class (host strain YMC14/01/P31): R
- antibiotic susceptibility test value (host strain YMC14/01/P31): 16
- antibiotic susceptibility class (host strain YMC14/01/P117): R
- antibiotic susceptibility test value (host strain YMC14/01/P117): 16
- antibiotic susceptibility class (host strain YMC14/01/P224): R
- antibiotic susceptibility test value (host strain YMC14/01/P224): 16
- antibiotic susceptibility class (host strain YMC14/01/P727): R
- antibiotic susceptibility test value (host strain YMC14/01/P727): 16
- antibiotic susceptibility class (host strain YMC14/01/P728): R
- antibiotic susceptibility test value (host strain YMC14/01/P728): 16
- antibiotic susceptibility class (host strain YMC14/01/R130): R
- antibiotic susceptibility test value (host strain YMC14/01/R130): 16
- antibiotic susceptibility class (host strain YMC14/01/R160): R
- antibiotic susceptibility test value (host strain YMC14/01/R160): 16
- antibiotic susceptibility class (host strain YMC14/01/R198): R
- antibiotic susceptibility test value (host strain YMC14/01/R198): 16
- antibiotic susceptibility class (host strain YMC14/01/R257): S
- antibiotic susceptibility test value (host strain YMC14/01/R257): 1
- antibiotic susceptibility class (host strain YMC14/01/R270): R
- antibiotic susceptibility test value (host strain YMC14/01/R270): 16
- antibiotic susceptibility class (host strain YMC14/01/R324): R
- antibiotic susceptibility test value (host strain YMC14/01/R324): 16
- antibiotic susceptibility class (host strain YMC14/01/R443): R
- antibiotic susceptibility test value (host strain YMC14/01/R443): 16
- antibiotic susceptibility class (host strain YMC14/01/R451): R
- antibiotic susceptibility test value (host strain YMC14/01/R451): 16
- antibiotic susceptibility class (host strain YMC14/01/R560): S
- antibiotic susceptibility test value (host strain YMC14/01/R560): 2
- antibiotic susceptibility class (host strain YMC14/01/R617): R
- antibiotic susceptibility test value (host strain YMC14/01/R617): 16
- antibiotic susceptibility class (host strain YMC14/01/R671): R
- antibiotic susceptibility test value (host strain YMC14/01/R671): 16
- antibiotic susceptibility class (host strain YMC14/01/R732): R
- antibiotic susceptibility test value (host strain YMC14/01/R732): 16
- antibiotic susceptibility class (host strain YMC14/01/R767): R
- antibiotic susceptibility test value (host strain YMC14/01/R767): 16
- antibiotic susceptibility class (host strain YMC14/01/R904): R
- antibiotic susceptibility test value (host strain YMC14/01/R904): 16
- antibiotic susceptibility class (host strain YMC14/01/R905): R
- antibiotic susceptibility test value (host strain YMC14/01/R905): 16
- antibiotic susceptibility class (host strain YMC14/01/R921): I
- antibiotic susceptibility test value (host strain YMC14/01/R921): 8
- antibiotic susceptibility class (host strain YMC14/01/R941): R
- antibiotic susceptibility test value (host strain YMC14/01/R941): 16
- antibiotic susceptibility class (host strain YMC14/01/R958): R
- antibiotic susceptibility test value (host strain YMC14/01/R958): 16
- antibiotic susceptibility class (host strain YMC14/01/R1006): R
- antibiotic susceptibility test value (host strain YMC14/01/R1006): 16
- antibiotic susceptibility class (host strain YMC14/01/R1199): R
- antibiotic susceptibility test value (host strain YMC14/01/R1199): 16
- antibiotic susceptibility class (host strain YMC14/01/R1659): R
- antibiotic susceptibility test value (host strain YMC14/01/R1659): 16
- antibiotic susceptibility class (host strain YMC14/01/R1722): R
- antibiotic susceptibility test value (host strain YMC14/01/R1722): 16
- antibiotic susceptibility class (host strain YMC14/01/R1752): R
- antibiotic susceptibility test value (host strain YMC14/01/R1752): 16
- antibiotic susceptibility class (host strain YMC14/01/R2429): R
- antibiotic susceptibility test value (host strain YMC14/01/R2429): 16
- antibiotic susceptibility class (host strain YMC14/01/R2572): R
- antibiotic susceptibility test value (host strain YMC14/01/R2572): 16
- antibiotic susceptibility class (host strain YMC14/01/R2855): R
- antibiotic susceptibility test value (host strain YMC14/01/R2855): 16
- antibiotic susceptibility class (host strain YMC14/01/R2945): R
- antibiotic susceptibility test value (host strain YMC14/01/R2945): 16
- antibiotic susceptibility class (host strain YMC14/01/R3007): R
- antibiotic susceptibility test value (host strain YMC14/01/R3007): 16
- antibiotic susceptibility class (host strain YMC14/01/R3129): R
- antibiotic susceptibility test value (host strain YMC14/01/R3129): 16
- antibiotic susceptibility class (host strain YMC14/01/R3317): R
- antibiotic susceptibility test value (host strain YMC14/01/R3317): 16
- antibiotic susceptibility class (host strain YMC14/01/R3474): R
- antibiotic susceptibility test value (host strain YMC14/01/R3474): 16
- antibiotic susceptibility class (host strain YMC14/01/R3574): R
- antibiotic susceptibility test value (host strain YMC14/01/R3574): 16
- antibiotic susceptibility class (host strain YMC14/01/U313): R
- antibiotic susceptibility test value (host strain YMC14/01/U313): 16
- antibiotic susceptibility class (host strain YMC14/01/U318): R
- antibiotic susceptibility test value (host strain YMC14/01/U318): 16
- antibiotic susceptibility class (host strain YMC14/02/L18): R
- antibiotic susceptibility test value (host strain YMC14/02/L18): 16
- antibiotic susceptibility class (host strain YMC14/02/P47): R
- antibiotic susceptibility test value (host strain YMC14/02/P47): 16
- antibiotic susceptibility class (host strain YMC14/02/R1860): I
- antibiotic susceptibility test value (host strain YMC14/02/R1860): 8
- antibiotic susceptibility class (host strain YMC14/02/R2417): R
- antibiotic susceptibility test value (host strain YMC14/02/R2417): 16
- antibiotic susceptibility class (host strain YMC14/02/R2599): S
- antibiotic susceptibility test value (host strain YMC14/02/R2599): 2
- antibiotic susceptibility class (host strain YMC14/02/R2668): R
- antibiotic susceptibility test value (host strain YMC14/02/R2668): 16
- antibiotic susceptibility class (host strain YMC14/02/R2758): R
- antibiotic susceptibility test value (host strain YMC14/02/R2758): 16
- antibiotic susceptibility class (host strain YMC14/02/R2781): R
- antibiotic susceptibility test value (host strain YMC14/02/R2781): 16
- antibiotic susceptibility class (host strain YMC14/02/R3106): R
- antibiotic susceptibility test value (host strain YMC14/02/R3106): 16
- antibiotic susceptibility class (host strain YMC14/02/R3419): R
- antibiotic susceptibility test value (host strain YMC14/02/R3419): 16
- antibiotic susceptibility class (host strain YMC14/02/U1607): R
- antibiotic susceptibility test value (host strain YMC14/02/U1607): 16
- antibiotic susceptibility class (host strain YMC14/03/L9): R
- antibiotic susceptibility test value (host strain YMC14/03/L9): 16
- antibiotic susceptibility class (host strain YMC14/03/P471): S
- antibiotic susceptibility test value (host strain YMC14/03/P471): 2
- antibiotic susceptibility class (host strain YMC14/03/R122): R
- antibiotic susceptibility test value (host strain YMC14/03/R122): 16
- antibiotic susceptibility class (host strain YMC14/03/R217): R
- antibiotic susceptibility test value (host strain YMC14/03/R217): 16
- antibiotic susceptibility class (host strain YMC14/03/R380): R
- antibiotic susceptibility test value (host strain YMC14/03/R380): 16
- antibiotic susceptibility class (host strain YMC14/03/R618): S
- antibiotic susceptibility test value (host strain YMC14/03/R618): 2
- antibiotic susceptibility class (host strain YMC14/03/R2144): R
- antibiotic susceptibility test value (host strain YMC14/03/R2144): 16
- antibiotic susceptibility class (host strain YMC14/03/U4616): R
- antibiotic susceptibility test value (host strain YMC14/03/U4616): 16
- antibiotic susceptibility class (host strain YMC14/04/R1078): S
- antibiotic susceptibility test value (host strain YMC14/04/R1078): 2
- antibiotic susceptibility class (host strain YMC14/04/R1080): S
- antibiotic susceptibility test value (host strain YMC14/04/R1080): 2
- antibiotic susceptibility S/I/R (host strain YMC14/06/R2359): R
- antibiotic susceptibility value (host strain YMC14/06/R2359): 16
- susceptibility category (S/I/R) (host strain YMC14/06/R2359): R
- susceptibility test value (number given before S/I/R) (host strain YMC14/06/R2359): 16
- antibiotic susceptibility S/I/R (host strain YMC14/08/R1169): R
- antibiotic susceptibility value (host strain YMC14/08/R1169): 16
- susceptibility category (S/I/R) (host strain YMC14/08/R1169): R
- susceptibility test value (number given before S/I/R) (host strain YMC14/08/R1169): 16
- antibiotic susceptibility S/I/R (host strain YMC14/08/T90): R
- antibiotic susceptibility value (host strain YMC14/08/T90): 16
- susceptibility category (S/I/R) (host strain YMC14/08/T90): R
- susceptibility test value (number given before S/I/R) (host strain YMC14/08/T90): 16
- antibiotic susceptibility S/I/R (host strain YMC15/02/R436): R
- antibiotic susceptibility value (host strain YMC15/02/R436): 16
- susceptibility category (S/I/R) (host strain YMC15/02/R436): R
- susceptibility test value (number given before S/I/R) (host strain YMC15/02/R436): 16
- antibiotic susceptibility S/I/R (host strain YMC15/02/T28): R
- antibiotic susceptibility value (host strain YMC15/02/T28): 16
- susceptibility category (S/I/R) (host strain YMC15/02/T28): R
- susceptibility test value (number given before S/I/R) (host strain YMC15/02/T28): 16
- antibiotic susceptibility S/I/R (host strain YMC15/03/R1604): R
- antibiotic susceptibility value (host strain YMC15/03/R1604): 16
- susceptibility category (S/I/R) (host strain YMC15/03/R1604): R
- susceptibility test value (number given before S/I/R) (host strain YMC15/03/R1604): 16
- antibiotic susceptibility S/I/R (host strain YMC15/09/R1869): R
- antibiotic susceptibility value (host strain YMC15/09/R1869): 16
- susceptibility category (S/I/R) (host strain YMC15/09/R1869): R
- susceptibility test value (number given before S/I/R) (host strain YMC15/09/R1869): 16
- antibiotic susceptibility S/I/R (host strain YMC16/01/P11): R
- antibiotic susceptibility value (host strain YMC16/01/P11): 16
- susceptibility category (S/I/R) (host strain YMC16/01/P11): R
- susceptibility test value (number given before S/I/R) (host strain YMC16/01/P11): 16
- antibiotic susceptibility S/I/R (host strain YMC16/01/R123): R
- antibiotic susceptibility value (host strain YMC16/01/R123): 16
- susceptibility category (S/I/R) (host strain YMC16/01/R123): R
- susceptibility test value (number given before S/I/R) (host strain YMC16/01/R123): 16
- antibiotic susceptibility S/I/R (host strain YMC16/01/R198): R
- antibiotic susceptibility value (host strain YMC16/01/R198): 16
- susceptibility category (S/I/R) (host strain YMC16/01/R198): R
- susceptibility test value (number given before S/I/R) (host strain YMC16/01/R198): 16
- antibiotic susceptibility S/I/R (host strain YMC16/01/R353): R
